Results: patent US20250084056A1, “SUBSTITUTED OXOISOINDOLINYL PIPERIDINE-2,6-DIONE COMPOUNDS” (BRISTOL-MYERS SQUIBB COMPANY, priority 2023, published 2025)

Tests used:
Type in all cases: cell-based
Cyclin E1 = Cyclin E1 (Homo sapiens, UniProt P24864+Q96SW2); test: Cyclin E1 Cellular Degradation Assay (MSD); parameters: endogenous in cells; host or cells: OVCAR3; conditions: for Ratio of GSPT1 DC50/Cyclin E1 DC50: selectivity for degradation of Cyclin E1 over GSPT1
Summary of the method: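 Cyclin E1 remaining after 24 h compound exposure of OVCAR3 cells was quantified in lysates by electrochemiluminescent MSD sandwich assay. DC50 (50% response concentration) and Dmax (maximum response) were calculated, with 110% response set by a reference compound at […].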

Phospho-Rb (Ser807/811) = test: Phospho-Retinoblastoma (pRB) Cellular Assay; conditions: NIH OVCAR3 cells, 24 hours; for IC50: concentration giving 50% response; for Emax: read-out: pRB Ymax
Summary of the method: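 Phospho-Rb (Ser807/811) kit read-out on EnVision after lysis (≥4 h, room temperature, dark) of OVCAR3 cells exposed to compound dilutions for 24 h. IC50 and maximum response Ymax are relative to a 10 μM reference compound defining 100%.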

GSPT1 = GSPT1 (Homo sapiens, UniProt P15170+Q96SW2); test: GSPT1 Cellular Degradation Assay (DF15-GSPT1-ePL); parameters: expressed in transfected cells; conditions: DF15-GSPT1-ePL cells, 20 hours
Chain of GSPT1 (P15170 whole entry, the tested form may be a part): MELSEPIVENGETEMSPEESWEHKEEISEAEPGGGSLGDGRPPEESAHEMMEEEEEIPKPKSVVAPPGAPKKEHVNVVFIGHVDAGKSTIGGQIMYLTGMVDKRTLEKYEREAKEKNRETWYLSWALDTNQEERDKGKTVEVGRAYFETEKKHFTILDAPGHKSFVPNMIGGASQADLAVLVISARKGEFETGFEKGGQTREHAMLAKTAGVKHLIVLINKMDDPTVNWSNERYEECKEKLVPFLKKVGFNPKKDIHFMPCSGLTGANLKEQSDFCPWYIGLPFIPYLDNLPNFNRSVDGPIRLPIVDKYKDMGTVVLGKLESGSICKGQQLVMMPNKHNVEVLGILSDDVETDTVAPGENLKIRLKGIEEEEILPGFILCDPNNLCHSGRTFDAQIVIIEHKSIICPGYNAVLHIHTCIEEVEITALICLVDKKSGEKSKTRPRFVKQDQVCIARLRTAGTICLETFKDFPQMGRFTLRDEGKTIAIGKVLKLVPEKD
Chain of GSPT1 (Q96SW2 whole entry, the tested form may be a part): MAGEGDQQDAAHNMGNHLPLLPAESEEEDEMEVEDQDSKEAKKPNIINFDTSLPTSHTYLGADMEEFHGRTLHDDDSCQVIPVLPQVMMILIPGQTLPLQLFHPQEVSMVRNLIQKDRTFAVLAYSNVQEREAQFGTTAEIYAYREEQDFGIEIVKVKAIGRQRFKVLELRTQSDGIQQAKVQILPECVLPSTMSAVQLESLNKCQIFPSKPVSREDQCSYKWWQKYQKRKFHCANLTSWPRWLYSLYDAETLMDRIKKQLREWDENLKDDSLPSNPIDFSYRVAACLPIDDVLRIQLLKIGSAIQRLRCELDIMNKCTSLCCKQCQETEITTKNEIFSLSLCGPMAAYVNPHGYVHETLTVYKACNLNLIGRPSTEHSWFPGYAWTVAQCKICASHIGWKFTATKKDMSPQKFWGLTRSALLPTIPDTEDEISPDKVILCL
Chain of GSPT1 (Q16531 whole entry partner, the tested form may be a part): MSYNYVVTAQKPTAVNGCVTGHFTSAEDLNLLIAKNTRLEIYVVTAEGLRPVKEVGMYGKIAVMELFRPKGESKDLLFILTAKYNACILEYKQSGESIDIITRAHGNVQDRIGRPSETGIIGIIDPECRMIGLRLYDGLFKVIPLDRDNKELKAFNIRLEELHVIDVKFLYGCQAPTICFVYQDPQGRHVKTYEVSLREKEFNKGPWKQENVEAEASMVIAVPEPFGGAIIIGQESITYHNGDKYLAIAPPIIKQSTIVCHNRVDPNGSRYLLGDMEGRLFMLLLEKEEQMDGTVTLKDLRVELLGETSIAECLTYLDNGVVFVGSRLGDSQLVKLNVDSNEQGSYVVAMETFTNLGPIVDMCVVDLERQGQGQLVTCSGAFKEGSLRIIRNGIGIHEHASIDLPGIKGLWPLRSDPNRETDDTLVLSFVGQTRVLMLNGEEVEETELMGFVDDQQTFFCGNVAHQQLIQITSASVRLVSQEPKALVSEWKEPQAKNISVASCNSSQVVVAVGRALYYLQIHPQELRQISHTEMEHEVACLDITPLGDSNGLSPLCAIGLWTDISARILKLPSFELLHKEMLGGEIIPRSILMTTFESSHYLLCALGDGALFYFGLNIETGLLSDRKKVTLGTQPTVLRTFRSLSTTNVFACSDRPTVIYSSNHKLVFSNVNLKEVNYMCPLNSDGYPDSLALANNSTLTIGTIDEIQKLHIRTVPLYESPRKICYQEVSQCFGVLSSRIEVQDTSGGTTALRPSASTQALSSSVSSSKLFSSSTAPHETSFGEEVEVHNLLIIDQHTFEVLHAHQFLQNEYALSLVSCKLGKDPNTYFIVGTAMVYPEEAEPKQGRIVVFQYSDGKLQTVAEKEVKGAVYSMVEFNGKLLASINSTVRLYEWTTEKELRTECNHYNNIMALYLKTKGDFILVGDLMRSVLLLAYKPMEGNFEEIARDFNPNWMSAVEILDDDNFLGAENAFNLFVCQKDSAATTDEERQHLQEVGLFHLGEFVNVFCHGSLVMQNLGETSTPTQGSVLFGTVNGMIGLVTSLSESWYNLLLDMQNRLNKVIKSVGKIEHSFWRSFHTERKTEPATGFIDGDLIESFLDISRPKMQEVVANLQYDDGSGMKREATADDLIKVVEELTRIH
Summary of the method: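 DC50 and Dmax were derived from chemiluminescence, with 75% response set by the reference compound at […]. Readout was ePL enzyme-fragment complementation in a DF15 line expressing chimeric GSPT1. Cells were exposed to compound for 20 h at 37 °C in RPMI 1640 with 10% FBS, cooled 30 min, then lysed with substrate for 60 min.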

[1] = Cyclin E1 cellular degradation, maximum degradation
[2] = Homo sapiens, OVCAR-3, maximum response, reference compound at 10 μM = 100%

Chain of Cyclin E1 (P24864 whole entry): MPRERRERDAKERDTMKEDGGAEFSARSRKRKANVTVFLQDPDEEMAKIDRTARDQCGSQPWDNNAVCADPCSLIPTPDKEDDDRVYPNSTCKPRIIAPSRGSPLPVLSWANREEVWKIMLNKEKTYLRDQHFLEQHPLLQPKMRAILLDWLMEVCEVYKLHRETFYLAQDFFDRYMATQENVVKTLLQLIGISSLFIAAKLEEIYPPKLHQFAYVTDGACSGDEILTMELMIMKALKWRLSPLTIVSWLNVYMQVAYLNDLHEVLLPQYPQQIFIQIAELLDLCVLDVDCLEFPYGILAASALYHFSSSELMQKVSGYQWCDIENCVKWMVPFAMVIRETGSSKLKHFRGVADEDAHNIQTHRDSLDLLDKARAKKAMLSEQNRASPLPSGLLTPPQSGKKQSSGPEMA
Chain of Cyclin E1 (Q96SW2 whole entry): as the sequence (Q96SW2 whole entry, the tested form may be a part) above
Chain of Cyclin E1 (Q16531 whole entry partner): as the sequence (Q16531 whole entry partner, the tested form may be a part) above

| Structure (SMILES) | DC50 (Cyclin E1; Cyclin E1 cellular degradation) [nM] | Dmax (Cyclin E1; [1]) [%] | Ratio of GSPT1 DC50/Cyclin E1 DC50 (Cyclin E1) | IC50 (Phospho-Rb (Ser807/811); Homo sapiens, OVCAR-3) [nM] | Emax (Phospho-Rb (Ser807/811); [2]) [%] | DC50 (GSPT1) [µM] | Dmax (GSPT1) [%] | IC50 (Phospho-Rb (Ser807/811)) [nM] | Cyclin E1 Dmax (Cyclin E1; [1]) [%] | pRB Ymax (Phospho-Rb (Ser807/811); maximum response, reference compound at 10 μM = 100%) [%] | GSPT1 Dmax (GSPT1) [%] |
| --- | --- | --- | --- | --- | --- | --- | --- | --- | --- | --- | --- |
| COc1c(COC(=O)Nc2ccc(Oc3ccc(F)cc3C(F)F)cc2)ccc2c1C(=O)N(C1CCC(=O)NC1=O)C2 (centres unmarked) [Example 89, [2-(2,6-dioxopiperidin-3-yl)-4-methoxy-3-oxo-2,3-dihydro-1H-isoindol-5-yl]methyl N-{4-[2-(difluoromethyl)-4-fluorophenoxy]phenyl}carbamate] | 289 | 101 | >48 | 159 | 108 | > 14 | 42 |  |  |  |  |
| COc1c(COC(=O)Nc2ccc(Oc3ccccc3C(F)(F)F)cc2Cl)ccc2c1C(=O)N(C1CCC(=O)NC1=O)C2 (centres unmarked) [Example 90, [2-(2,6-dioxopiperidin-3-yl)-4-methoxy-3-oxo-2,3-dihydro-1H-isoindol-5-yl]methyl N-{2-chloro-4-[2-(trifluoromethyl)phenoxy]phenyl}carbamate] | 200 | 100 | >70 | 479 | 103 | > 14 | 10 |  |  |  |  |
| COc1c(COC(=O)Nc2ccc(Oc3ccc(Cl)c(F)c3)cc2F)ccc2c1C(=O)N(C1CCC(=O)NC1=O)C2 (centres unmarked) [Example 91, [2-(2,6-dioxopiperidin-3-yl)-4-methoxy-3-oxo-2,3-dihydro-1H-isoindol-5-yl]methyl N-[4-(4-chloro-3-fluorophenoxy)-2-fluorophenyl]carbamate] | 223 | 106 | >63 | 160 | 101 | > 14 | 20 |  |  |  |  |
| COc1c(COC(=O)Nc2ccc(Oc3ccccc3C)cc2)ccc2c1C(=O)N(C1CCC(=O)NC1=O)C2 (centres unmarked) [Example 92, [2-(2,6-dioxopiperidin-3-yl)-4-methoxy-3-oxo-2,3-dihydro-1H-isoindol-5-yl]methyl N-{4-[2-(^2H3)methylphenoxy]phenyl}carbamate] | 170 |  |  |  |  | > 14 |  | 34 |  |  |  |
| [2H]C([2H])([2H])c1ccccc1Oc1ccc(NC(=O)OCc2ccc3c(c2OC)C(=O)N(C2CCC(=O)NC2=O)C3)cc1 (centres unmarked) [Example 92, [2-(2,6-dioxopiperidin-3-yl)-4-methoxy-3-oxo-2,3-dihydro-1H-isoindol-5-yl]methyl N-{4-[2-(^2H3)methylphenoxy]phenyl}carbamate] |  |  | >82 |  |  |  |  |  | 114 | 112 | 23 |
| COc1cc(Oc2ccccc2)ccc1NC(=O)OCc1ccc2c(c1OC)C(=O)N(C1CCC(=O)NC1=O)C2 (centres unmarked) [Example 93, [2-(2,6-dioxopiperidin-3-yl)-4-methoxy-3-oxo-2,3-dihydro-1H-isoindol-5-yl]methyl N-(2-methoxy-4-phenoxyphenyl)carbamate] | 338 | 103 | >41 | 159 | 111 | > 14 | 5 |  |  |  |  |
| COc1c(COC(=O)Nc2ccc(Oc3cc(F)c(F)cc3C)cc2F)ccc2c1C(=O)N(C1CCC(=O)NC1=O)C2 (centres unmarked) [Example 94, [2-(2,6-dioxopiperidin-3-yl)-4-methoxy-3-oxo-2,3-dihydro-1H-isoindol-5-yl]methyl N-[4-(4,5-difluoro-2-methylphenoxy)-2-fluorophenyl]carbamate] | 198 | 106 | >71 | 287 | 107 | > 14 | 25 |  |  |  |  |
| COc1c(COC(=O)Nc2ccc(Oc3ccc(F)cc3C)cc2F)ccc2c1C(=O)N(C1CCC(=O)NC1=O)C2 (centres unmarked) [Example 95, [2-(2,6-dioxopiperidin-3-yl)-4-methoxy-3-oxo-2,3-dihydro-1H-isoindol-5-yl]methyl N-[2-fluoro-4-(4-fluoro-2-methylphenoxy)phenyl]carbamate] | 274 | 110 | >51 | 63 | 125 | > 14 | 36 |  |  |  |  |
| COc1c(COC(=O)Nc2ccc(Oc3ccc(F)c(C)c3)cc2)ccc2c1C(=O)N(C1CCC(=O)NC1=O)C2 (centres unmarked) [Example 96, [2-(2,6-dioxopiperidin-3-yl)-4-methoxy-3-oxo-2,3-dihydro-1H-isoindol-5-yl]methyl N-[4-(4-fluoro-3-methylphenoxy)phenyl]carbamate] | 129 | 106 | >109 | 100 | 117 | > 14 | 27 |  |  |  |  |
| COc1cc(Oc2ccc(F)c(C)c2)ccc1NC(=O)OCc1ccc2c(c1OC)C(=O)N(C1CCC(=O)NC1=O)C2 (centres unmarked) [Example 97, [2-(2,6-dioxopiperidin-3-yl)-4-methoxy-3-oxo-2,3-dihydro-1H-isoindol-5-yl]methyl N-[4-(4-fluoro-3-methylphenoxy)-2-methoxyphenyl]carbamate] | 357 | 106 | >39 | 326 | 101 | > 14 | 24 |  |  |  |  |
| COc1c(COC(=O)Nc2ccc(Oc3ccc(F)c(Cl)c3)cc2F)ccc2c1C(=O)N(C1CCC(=O)NC1=O)C2 (centres unmarked) [Example 98, [2-(2,6-dioxopiperidin-3-yl)-4-methoxy-3-oxo-2,3-dihydro-1H-isoindol-5-yl]methyl N-[4-(3-chloro-4-fluorophenoxy)-2-fluorophenyl]carbamate] | 97 | 109 | >144 | 92 | 106 | > 14 | 28 |  |  |  |  |
| COc1c(COC(=O)Nc2ccc(Oc3ccc(F)c(C)c3)cc2F)ccc2c1C(=O)N(C1CCC(=O)NC1=O)C2 (centres unmarked) [Example 99, [2-(2,6-dioxopiperidin-3-yl)-4-methoxy-3-oxo-2,3-dihydro-1H-isoindol-5-yl]methyl N-[2-fluoro-4-(4-fluoro-3-methylphenoxy)phenyl]carbamate] | 118 | 109 | >118 | 221 | 114 | > 14 | 22 |  |  |  |  |
| COc1cc(Oc2ccc(F)c(Cl)c2)ccc1NC(=O)OCc1ccc2c(c1OC)C(=O)N(C1CCC(=O)NC1=O)C2 (centres unmarked) [Example 100, [2-(2,6-dioxopiperidin-3-yl)-4-methoxy-3-oxo-2,3-dihydro-1H-isoindol-5-yl]methyl N-[4-(3-chloro-4-fluorophenoxy)-2-methoxyphenyl]carbamate] | 327 | 112 | >43 | 140 | 118 | > 14 | 33 |  |  |  |  |
| COc1c(COC(=O)Nc2ccc(Oc3ccccc3C)cc2)ccc2c1C(=O)N(C1CCC(=O)NC1=O)C2 (centres unmarked) [Example 101, [2-(2,6-dioxopiperidin-3-yl)-4-methoxy-3-oxo-2,3-dihydro-1H-isoindol-5-yl]methyl N-[4-(2-methylphenoxy)phenyl]carbamate] | 72 | 108 | >194 | 61 | 111 | > 14 | 18 |  |  |  |  |
| COc1c(COC(=O)Nc2ccc(Oc3ccc(F)cc3Cl)cc2)ccc2c1C(=O)N(C1CCC(=O)NC1=O)C2 (centres unmarked) [Example 102, [2-(2,6-dioxopiperidin-3-yl)-4-methoxy-3-oxo-2,3-dihydro-1H-isoindol-5-yl]methyl N-[4-(2-chloro-4-fluorophenoxy)phenyl]carbamate] | 59 | 108 | >236 | 121 | 120 | > 14 | 35 |  |  |  |  |
